Key:
[1] = Solubility of rasagiline salts in water measured using Crystal16 (Avantium Technologies)
[2] = physchem; conditions: water, Solubility of rasagiline salts in water

C#CCN[C@@H]1CCc2ccccc21 [L-tartrate, Rasagiline L-tartrate, reference compound]
solubility [1]: < 30 mg/mL

C#CCN[C@@H]1CCc2ccccc21 [(+)-camphor-10-sulfonate, Rasagiline (+)-camphor-10-sulfonate]
Solubility of rasagiline salts in water: 175 mg/mL
solubility [2]: 113 mg/mL

C#CCN[C@@H]1CCc2ccccc21 [L-mandelate, Rasagiline L-mandelate]
solubility ([1]; Solubility of rasagiline salts in water, 25 °C, H2O): 70 mg/mL
solubility ([1]; Solubility of rasagiline salts in water, 40 °C, H2O): 100 mg/mL

— EP2325159A1, “Novel salts of rasagiline” (LEK Pharmaceuticals d.d., priority 2009, dated 2011)
